Source: paper PMC8041318, “Folic Acid–Peptide Conjugates Combine Selective Cancer Cell Internalization with Thymidylate Synthase Dimer Interface Targeting” (Journal of Medicinal Chemistry, 2021)

Columns and labels:
HSP90AA1 = conditions: IGROV-1, 5 μM, 48 h
DHFR = conditions: IGROV-1, 5 μM, 48 h
IGROV-1 cells = test: Cell growth inhibition, crystal violet dye assay; type: cell-based, human
From the text: (§1) SQ was defined as the net growth inhibitory effect of the analogue combination divided by the sum of the net individual analogue effects on growth inhibition. A quotient of >1.1 indicates a synergistic effect, that between 0.9 and 1.1 indicates an additive effect, while a quotient of <0.9 indicates an antagonistic effect.

A2780 cells = test: Cell growth inhibition, crystal violet dye assay (combination study); type: cell-based, human
From the text: as §1

in vitro = conditions: human, cytosol
Method: Given the relevance of the concentration data, we checked whether the 30 min incubation time could represent a drawback in our analytical approach.
C13* human ovarian cancer cell lines (highly cisplatin-resistant) were prepared as reported for IGROV1 (LC-MS compartmentalization experiment).[65] […] After each interval, the cells (about 2 million per Petri plate) were washed three times with acid phosphate-buffered saline (PBS, pH 5.0), scraped, and counted. […] Each cytosol aliquot was diluted to a final volume of 500 μL with a 1:1 mixture of H2O with 0.1% HCOOH and ACN with 1 μM 1,4-dithiothreitol (DTT) as an antioxidant agent.
Sample analysis was carried out on an UltiMate 3000 UHPLC (Thermo Fisher Scientific) coupled to an Orbitrap Q-Exactive mass spectrometer. We used an Agilent Poroshell C18 column (120 Å, 100 × 2.1 mm^2, 2.7 μm ps) to separate the analytes, thermostated at 30 °C, with an injection volume of 20 μL per sample. […] C13* cells were assumed to have a spherical volume of 2 pL, whose 60% represented by cytoplasm. Thus, interpolated values were multiplied by the final dilution value (500 μL) and divided by the number of cells for each sample multiplied by a single-cell cytosol volume (1.2 pL).

RFC = conditions: physiological conditions; read-out: Km toward RFC; cited from earlier work
[1] = test system: R1-11-FR2 and R5-FR12 HeLa cells; parameters: method as in PMID 19074442; conditions: tritiated FA; cited from earlier work

Nc1nc2[nH]cc(CCc3ccc(C(=O)N[C@@H](CCC(=O)O)C(=O)O)cc3)c2c(=O)[nH]1 [PMX, pemetrexed]
upregulation of hTS protein levels (hTS; IGROV-1, 5 μM, 48 h): 2.5 fold

CC(C)C[C@H](NC(=O)CC[C@H](NC(=O)c1ccc(NCc2cnc3nc(N)nc(O)c3n2)cc1)C(=O)O)C(=O)N[C@@H](CO)C(=O)N[C@@H](CS)C(=O)N[C@H](CCC(N)=O)C(=O)N[C@@H](CC(C)C)C(=O)N[C@@H](Cc1ccc(O)cc1)C(=O)N[C@@H](CCC(N)=O)C(=O)N[C@@H](CCCNC(=N)N)C(=O)O [FA–[DGln^4]LR]
reduction of HSP90AA1 level (HSP90AA1): 10%
DHFR protein level with respect to control (in words) (DHFR): clear decrease

Cc1nc2ccc(CN(C)c3ccc(C(=O)N[C@@H](CCC(=O)O)C(=O)O)s3)cc2c(=O)[nH]1 [raltitrexed]
% Growth inhibition, single compound (IGROV-1 cells; RTX 10nM): 34.5%
% Growth inhibition, single compound (IGROV-1 cells; RTX 20nM): 29.5%
% Growth inhibition, single compound (A2780 cells; RTX 10nM): 56.8%
% Growth inhibition, single compound (A2780 cells; RTX 20nM): 59.9%

CC(C)C[C@H](NC(=O)CC[C@H](NC(=O)c1ccc(NCc2cnc3nc(N)[nH]c(=O)c3n2)cc1)C(=O)O)C(=O)N[C@@H](CO)C(=O)N[C@@H](CS)C(=O)N[C@@H](CCC(N)=O)C(=O)N[C@@H](CC(C)C)C(=O)N[C@@H](Cc1ccc(O)cc1)C(=O)N[C@@H](CCC(N)=O)C(=O)N[C@@H](CCCNC(=N)N)C(=O)O [FA–LR]
half-life (in vitro): 3.33 h

Nc1nc2ncc(CNc3ccc(C(=O)N[C@@H](CCC(=O)O)C(=O)O)cc3)nc2c(=O)[nH]1 [FA, folic acid]
Km (RFC): > 100 µM
ratio of concentrations between vesicular and cytosolic fractions [1]: 10.8

[NH2][Pt]([NH2])([Cl])[Cl] [cDDP, cisplatin]
% Growth inhibition, single compound (IGROV-1 cells; cDDP 1µM): 40.3%
% Growth inhibition, single compound (IGROV-1 cells; cDDP 2µM): 44.9%
% Growth inhibition, single compound (IGROV-1 cells; cDDP 5µM): 48.8%
% Growth inhibition, single compound (A2780 cells; cDDP 1µM): 37.3%
% Growth inhibition, single compound (A2780 cells; cDDP 2µM): 49.1%
% Growth inhibition, single compound (A2780 cells; cDDP 5µM): 78.6%

O=c1[nH]cc(F)c(=O)[nH]1 [5-FU, 5-fluorouracil]
% Growth inhibition, single compound (IGROV-1 cells; 5FU 10µM): 28.4%
% Growth inhibition, single compound (IGROV-1 cells; 5FU 15µM): 36.5%
hTS protein levels (in words) (hTS; IGROV-1, Figures SI-10 and SI-11): slightly increased
% Growth inhibition, single compound (A2780 cells; 5FU 10µM): 45.3%
% Growth inhibition, single compound (A2780 cells; 5FU 15µM): 34.5%
